Reference: patent publication US10786444B2, “PH dependent carriers for targeted release of pharmaceuticals along the gastrointestinal tract, compositions therefrom, and making and using same” (PLx Opco Inc., priority 2011, dated 2020)

Assay: physchem
Description: (§1) In this study, pure salicylic acid (SA) partitioning between cyclohexane and water versus salicylic acid partitioning between cyclohexane and water in SA Formulas A-D was investigated at pH 1 and at pH 7 simulating gastric fluids and duodenum fluids. The study was conducted by adding either SA, SA Formulas A-D into a cyclohexane/water partitioning system and measuring the differential partitioning of SA between the two phase as the value Log P.
as §1, with “naproxen (NAP)” for “salicylic acid (SA)”, “NAP” for “salicylic acid”, “NAP” for “SA”, “NAP, NAP” for “SA, SA”
as §1, with “indomethacin (INDO)” for “salicylic acid (SA)”, “INDO” for “salicylic acid”, “INDO” for “SA”, “INDO, INDO” for “SA, SA”
as §1, with “pure mefenamic” for “pure salicylic”, “acid (MFA)” for “acid (SA)”, “versus MFA” for “versus salicylic acid”, “in MFA” for “in SA”, “either MFA, MFA” for “either SA, SA”, “of MFA” for “of SA”

Row | logD hydrocarbon water (pH 1) | logD hydrocarbon water (pH 7) | SMILES
1 | 1.05 | -1.81 | COc1ccc2c(c1)c(CC(=O)O)c(C)n2C(=O)c1ccc(Cl)cc1 [INDO, indomethacin]
2 | 0 | 0.47 | Cc1cccc(Nc2ccccc2C(=O)O)c1C [MFA, mefenamic acid]
3 | -1.11 | 0 | O=C(O)c1ccccc1O [SA, salicylic acid]
